Data on six molecules can be found in US20120178815A1, “Compositions of (-)-E-10-OH-NT and Methods for Their Synthesis and Use” (Adolor Corporation, priority 2007, published 2012).

“Also recorded” adds a separate entry of the source.

Data set [1] concerns the target human NE transporter (hNET) (Homo sapiens, UniProt P23975). The data set is described as follows: NE transporter competitive binding assay, [3H]nisoxetine. Conditions: Example 14; read-out: NET Ki. Here is the method: (§1) Protocol. […] Bound radioactivity was determined by scintillation spectroscopy. Non-specific binding was defined as the amount of binding that occurred in the presence of 1.0 μM desipramine. The Ki values of the various test compounds were determined using standard methods.
as §1

The target in data set [2] is T1, human serotonin transporter (hSERT) (Homo sapiens, UniProt P31645).
T1 construct: expressed in transfected cells; host or cells: CHO cells (membranes)
T1 sequence (P31645 whole entry): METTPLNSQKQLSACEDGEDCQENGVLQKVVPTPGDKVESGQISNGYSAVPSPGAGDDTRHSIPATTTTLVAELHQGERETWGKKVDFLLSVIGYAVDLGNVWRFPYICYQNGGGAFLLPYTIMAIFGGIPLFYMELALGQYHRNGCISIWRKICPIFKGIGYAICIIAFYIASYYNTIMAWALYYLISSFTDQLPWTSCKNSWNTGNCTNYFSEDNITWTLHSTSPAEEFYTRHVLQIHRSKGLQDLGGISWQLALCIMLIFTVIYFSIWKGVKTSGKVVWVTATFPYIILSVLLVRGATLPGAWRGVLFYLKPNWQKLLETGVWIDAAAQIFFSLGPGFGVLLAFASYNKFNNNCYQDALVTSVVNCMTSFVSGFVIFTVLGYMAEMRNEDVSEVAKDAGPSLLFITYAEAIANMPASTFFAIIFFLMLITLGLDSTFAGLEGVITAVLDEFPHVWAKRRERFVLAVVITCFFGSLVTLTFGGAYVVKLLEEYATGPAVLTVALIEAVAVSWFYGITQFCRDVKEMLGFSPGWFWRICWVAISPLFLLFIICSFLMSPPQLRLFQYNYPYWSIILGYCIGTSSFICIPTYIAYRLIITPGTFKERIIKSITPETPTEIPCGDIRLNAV
The data set is described as follows: 5HT transporter competitive binding assay, [3H]imipramine. Conditions: Example 14; read-out: SERT Ki. Here is the method:
(§2) Bound radioactivity was determined by scintillation spectroscopy. […] The Ki values of the various test compounds were determined using standard methods.
as §2

The test system of data set [3] is L5 SNL rats, tactile allodynia. The data set is described as follows: L5-Single Nerve Ligation model of neuropathic pain (von Frey). The class given is in vivo, rat. Conditions: 30 mg/kg, i.p. Here is the method: Protocol. […] The test animals were placed in a Plexiglas chamber (10 cm×20 cm×25 cm) and habituated for 15 minutes. The chamber was positioned on top of a mesh screen so that von Frey monofilaments could be presented to the plantar surface of both hindpaws. Measurement of tactile sensitivity for each hindpaw were obtained using the up/down method (Dixon, 1980) with seven Frey monofilaments (0.4, 1, 2, 4, 6, 8 and 15 grams). Each trial started with a von Frey force of 2 grams delivered to the right hindpaw for approximately 1-2 seconds and then the left hindpaw. If there was no withdrawal response, the next higher force was delivered. If there was a response, the next lower force was delivered. This procedure was performed until no response was made at the highest force (15 grams) or until four stimuli were administered following the initial response. Each test group contained 8 animals. The sham-operated control group, which were operated on but not subject to nerve ligation, contained 4 animals. All animals were tested at 60 minutes, and 240 minutes, post-administration of test compounds.
The 50% paw withdrawal threshold for each paw was calculated using the following formula: [Xth] log=[vFr] log+ky where [vFr] is the force of the last von Frey used, k=0.2249 which is the average interval (in log units) between the von Frey monofilaments, and y is a value that depends upon the pattern of withdrawal responses (Dixon, 1980). […] Testing for tactile sensitivity was performed twice and the mean 50% withdrawal value assigned as the tactile sensitivity for the right and left paws for each animal.
The E-10-OH-NT compounds were administered as either a maleate or succinate salt. AT was administered as a hydrochloride salt. Dosage amounts are based on the amount of free base. The test animals were placed in a Plexiglas chamber (10 cm×20 cm×25 cm) and habituated for 15 minutes. The chamber was positioned on top of a mesh screen so that von Frey monofilaments could be presented to the plantar surface of both hindpaws. Measurement of tactile sensitivity for each hindpaw were obtained using the up/down method (Dixon, 1980) with seven Frey monofilaments (0.4, 1, 2, 4, 6, 8 and 15 grams). Each trial started with a von Frey force of 2 grams delivered to the right hindpaw for approximately 1-2 seconds and then the left hindpaw. If there was no withdrawal response, the next higher force was delivered. If there was a response, the next lower force was delivered. This procedure was performed until no response was made at the highest force (15 grams) or until four stimuli were administered following the initial response. Each test group contained 8 animals. The sham-operated control group, which were operated on but not subject to nerve ligation, contained 4 animals. […]

A further data set concerns the target T2, NE uptake, mouse atria (Mus musculus, UniProt O55192).
T2 construct: host or cells: mouse atria
Conditions: Hyttel, 1980; cited from earlier work.

Data set [4] can be described thus: Hygroscopicity of salt form. The class given is physicochemical. The following applies: crystalline salt.
Data set [5] concerns acetic acid-induced abdominal constriction. Conditions: cited from earlier work.
For the next data set, the system named is pain intensity. The following applies: study completers; Atkinson et al., 1999; cited from earlier work.

T2 sequence (O55192 whole entry): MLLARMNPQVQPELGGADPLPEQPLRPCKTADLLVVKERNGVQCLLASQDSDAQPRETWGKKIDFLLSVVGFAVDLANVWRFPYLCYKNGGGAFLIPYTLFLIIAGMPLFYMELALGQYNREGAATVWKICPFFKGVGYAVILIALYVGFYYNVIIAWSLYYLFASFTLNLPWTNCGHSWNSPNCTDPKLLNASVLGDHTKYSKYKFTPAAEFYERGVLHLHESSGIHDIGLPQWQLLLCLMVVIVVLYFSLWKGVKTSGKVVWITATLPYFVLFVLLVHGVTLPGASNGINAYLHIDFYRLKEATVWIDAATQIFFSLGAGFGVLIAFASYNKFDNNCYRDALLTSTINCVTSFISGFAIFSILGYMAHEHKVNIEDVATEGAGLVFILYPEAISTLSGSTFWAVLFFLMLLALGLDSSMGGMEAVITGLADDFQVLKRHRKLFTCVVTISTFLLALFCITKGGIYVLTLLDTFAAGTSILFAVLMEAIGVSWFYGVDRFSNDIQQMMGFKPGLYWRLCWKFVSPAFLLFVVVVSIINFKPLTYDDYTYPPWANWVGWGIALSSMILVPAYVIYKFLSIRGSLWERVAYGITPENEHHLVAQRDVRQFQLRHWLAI
Sequence of human NE transporter (hNET) (P23975 whole entry): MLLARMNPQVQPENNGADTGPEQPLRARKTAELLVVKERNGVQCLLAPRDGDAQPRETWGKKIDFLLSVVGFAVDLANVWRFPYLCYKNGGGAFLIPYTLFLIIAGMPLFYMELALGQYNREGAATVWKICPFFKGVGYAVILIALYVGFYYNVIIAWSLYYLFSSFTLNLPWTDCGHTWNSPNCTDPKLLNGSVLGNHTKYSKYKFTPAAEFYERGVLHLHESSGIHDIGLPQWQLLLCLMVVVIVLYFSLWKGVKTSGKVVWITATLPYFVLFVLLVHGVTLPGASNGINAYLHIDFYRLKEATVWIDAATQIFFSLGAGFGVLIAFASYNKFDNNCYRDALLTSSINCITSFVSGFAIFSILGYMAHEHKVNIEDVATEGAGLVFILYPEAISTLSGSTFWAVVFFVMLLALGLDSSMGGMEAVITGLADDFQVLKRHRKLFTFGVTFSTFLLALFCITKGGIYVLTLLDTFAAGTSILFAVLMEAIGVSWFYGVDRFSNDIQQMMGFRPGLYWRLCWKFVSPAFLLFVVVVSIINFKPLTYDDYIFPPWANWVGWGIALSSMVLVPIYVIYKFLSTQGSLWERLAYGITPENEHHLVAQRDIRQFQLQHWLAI

For orientation: Ki means a dissociation constant, usually derived from enzyme kinetics or from competition with a known ligand. What is called IC50 is the point on the concentration scale where inhibition reaches its midpoint. Turning to `CNCC/C=C1\c2ccccc2CC(O)c2ccccc21` (racemic) [(±)-E-10-OH-NT, (S/R)-5-[3-Methylamino-prop-(E)-ylidene]-10,11-dihydro-5H-dibenzo[a,d]cyclohepten-10-ol, reference compound], the Ki worked out at 51 nM in data set [1] and 420 nM in data set [2]. The antiallodynic activity result in data set [3] is listed as “comparable to that of the vehicle-only control”. Moreover, the IC50 on NE uptake, mouse atria was 130 nM. Regarding `CNCC/C=C1\c2ccccc2CC(O)c2ccccc21.O=C(O)CCC(=O)O` (single isomer, unassigned; (-)) [(−)-E-10-OH-NT Succinate], the hygroscopicity result in data set [4] was “non-hydroscopic; also recorded: non-hygroscopic”. Turning to `COC1(C2=NCCN2)COc2ccccc2O1` (stereo not drawn) [RX821002, [2-(2-methoxy-1, -4-benzodioxan-2-yl)-2-imidazoline]], the “inhibition of acetic acid-induced abdominal constriction” value in data set [5] (doses up to 3 mg/kg, subcutaneously, by itself) is on record as “did not produce significant inhibition”. As to `Clc1cccc(Cl)c1N=C1NCCN1` [clonidine], the “protection against acetic acid-induced abdominal constriction” value in data set [5] (highest dose level, 1.0 mg/kg (s.c.)) is given as 100%. Consider `CNCCCC12CCC(c3ccccc31)c1ccccc12` [maprotiline], for which the “reduction in pain intensity” value in the data set with pain intensity was 45%. With `Fc1ccc([C@@H]2CCNC[C@H]2COc2ccc3c(c2)OCO3)cc1` [paroxetine], in the data set on pain intensity, the “reduction in pain intensity” value was 26%.
